Data taken from patent US20220175723A1, “METHODS AND COMPOSITIONS RELATING TO INHIBITION OF ALDEHYDE DEHYDROGENASES FOR TREATMENT OF CANCER” (THE PENN STATE RESEARCH FOUNDATION, priority 2019, published 2022).
Where two headings read alike, the source gives them in different places.

Legend:
HCT116 cells [1] = experiment: Cell cycle by propidium iodide staining with or without NAC; format: cell-based, human
Procedure: (§1) FIGS. 30A-30F. […] ROS levels were measured using DCFDA dye and compared to DMSO control. Malondialdehyde (MDA) levels were measured in colon cancer cell line HCT116 using thiobarbituric acid and compared to DMSO control (FIG. 30C). Cell survival assay was performed by MTS assay (FIG. 30D), apoptosis by Annexin-V/7-AAD (FIG. 30E) and cell cycle by propidium iodide staining in colon cancer cell line HCT116 (FIG. 30F).
(§2) Further, the effect of the addition of NAC on the antiproliferative and apoptotic activity of ALDH inhibitors was also evaluated.

[2] = Toxicity study, 14 days i.p.; format: in vivo, Swiss-Webster mice; details: 5 mg/kg/day i.p. for 14 days, vs DMSO
Procedure: To determine the toxicity of 3(h-l), compounds were injected i.p. into Swiss-Webster mice once daily for 14 days (Id.). Animals were monitored for changes in body weight, behavior and physical distress compared to DMSO control.

HCT116 and HT29 cells = experiment: ROS assay (DCFDA), Study 2, with or without NAC; format: cell-based, human
HCT116 cells [3] = experiment: Apoptosis by Annexin-V/7-AAD with or without NAC; format: cell-based, human; parameters: dose or concentration left out as unconfirmed; details: vs DMSO or 3a
Procedure: as §1, §2

HCT116 cells [4] = experiment: Cell survival MTS assay with or without NAC; format: cell-based, human
Procedure: as §1, §2

ALDH2 = biological target: T1, ALDH2 (Homo sapiens, UniProt P05091); experiment: ALDH isoform-specific enzyme assay (NADH absorbance 340 nm); format: biochemical; details: Study 1; read-out: IC50s ALDH2
T1 construct: purchased R & D Systems, Inc, Minneapolis, Minn., USA
T1 sequence (P05091 18-517): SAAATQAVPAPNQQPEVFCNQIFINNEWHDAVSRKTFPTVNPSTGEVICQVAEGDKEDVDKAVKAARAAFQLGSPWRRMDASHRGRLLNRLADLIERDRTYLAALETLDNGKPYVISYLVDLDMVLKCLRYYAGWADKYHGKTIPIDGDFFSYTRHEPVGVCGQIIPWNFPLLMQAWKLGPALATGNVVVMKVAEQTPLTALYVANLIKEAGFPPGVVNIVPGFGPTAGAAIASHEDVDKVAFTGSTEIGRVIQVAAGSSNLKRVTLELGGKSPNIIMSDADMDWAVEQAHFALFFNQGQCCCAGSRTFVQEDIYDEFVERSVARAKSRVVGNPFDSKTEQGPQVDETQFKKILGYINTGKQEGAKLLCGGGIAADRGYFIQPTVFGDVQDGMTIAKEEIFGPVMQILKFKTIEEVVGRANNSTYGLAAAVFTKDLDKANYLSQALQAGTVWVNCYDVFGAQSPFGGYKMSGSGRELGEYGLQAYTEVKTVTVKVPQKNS

ALDH1A1 = biological target: T2, ALDH1A1 (Homo sapiens, UniProt P00352); experiment: as above; format: biochemical; details: Study 1; read-out: IC50s ALDH1A1
T2 construct: purchased R & D Systems, Inc, Minneapolis, Minn., USA
T2 sequence (P00352 1-501): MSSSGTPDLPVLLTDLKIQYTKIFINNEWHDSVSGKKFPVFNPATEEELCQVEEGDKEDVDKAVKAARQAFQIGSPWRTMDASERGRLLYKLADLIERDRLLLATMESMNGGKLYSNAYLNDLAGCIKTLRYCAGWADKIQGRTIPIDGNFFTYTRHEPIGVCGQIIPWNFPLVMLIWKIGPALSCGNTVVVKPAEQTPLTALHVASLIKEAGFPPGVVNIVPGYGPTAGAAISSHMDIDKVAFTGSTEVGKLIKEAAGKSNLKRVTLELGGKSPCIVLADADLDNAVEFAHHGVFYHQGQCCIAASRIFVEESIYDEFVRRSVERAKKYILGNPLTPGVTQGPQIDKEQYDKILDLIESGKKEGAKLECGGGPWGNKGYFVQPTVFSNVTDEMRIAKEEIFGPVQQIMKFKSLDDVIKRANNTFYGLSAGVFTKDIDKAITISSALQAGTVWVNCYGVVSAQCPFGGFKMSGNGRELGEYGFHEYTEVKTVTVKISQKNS

ALDH3A1 = biological target: T3, ALDH3A1 (Homo sapiens, UniProt P30838); experiment: as above; format: biochemical
T3 construct: purchased R & D Systems, Inc, Minneapolis, Minn., USA
T3 sequence (P30838 1-453): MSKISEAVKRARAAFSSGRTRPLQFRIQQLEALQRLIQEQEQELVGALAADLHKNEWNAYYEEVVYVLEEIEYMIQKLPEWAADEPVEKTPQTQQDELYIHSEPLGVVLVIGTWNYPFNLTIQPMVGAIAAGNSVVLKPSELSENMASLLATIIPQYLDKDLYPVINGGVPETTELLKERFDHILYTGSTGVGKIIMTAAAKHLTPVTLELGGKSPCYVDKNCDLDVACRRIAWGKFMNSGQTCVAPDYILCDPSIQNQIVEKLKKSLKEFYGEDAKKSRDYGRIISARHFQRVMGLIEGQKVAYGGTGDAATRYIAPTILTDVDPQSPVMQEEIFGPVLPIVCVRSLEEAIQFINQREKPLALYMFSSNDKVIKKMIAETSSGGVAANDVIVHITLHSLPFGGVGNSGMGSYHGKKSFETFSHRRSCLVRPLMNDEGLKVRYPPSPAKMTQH

[5] = tested on: total cellular ALDH activity, UACC 903 cell lysates; experiment: Total cellular ALDH activity in cell lysates; format: biochemical, human; details: 1 uM inhibitor, 15 minutes
Excerpt: (§3) The ALDHs reduce ROS, lipid peroxidation and toxic aldehyde accumulation, the latter of which can lead to cell damage and apoptosis as shown in FIG. 6A. Thus, inhibition of total cellular ALDH activity can increase toxic aldehydes, oxidative damage and apoptosis.

[6] = tested on: total cellular ALDH activity, 1205 Lu cell lysates; experiment: Total cellular ALDH activity in cell lysates; format: biochemical, human; details: 1 uM inhibitor, 15 minutes
Excerpt: as §3

UACC 903 cells = experiment: Cell viability MTS assay, UACC 903; format: cell-based, human; details: 100 μM, 72 hours
[7] = Study 1, read-out: IC50s ALDH3A1

IC50 (ALDH2) | IC50 (ALDH1A1) | SMILES | IC50 (ALDH3A1; [7]) | reduction of total cellular ALDH activity, UACC 903 [5] | reduction of total cellular ALDH activity, 1205 Lu [6] | other results
 |  | Br.N=C(N)SCc1ccc(CN2C(=O)C(=O)c3cc(C(F)(F)F)ccc32)cc1 [Compound 3h, 2-[4-(2,3-Dioxo-5-trifluoromethyl-2,3-dihydroindol-1-ylmethyl)benzyl]isothiourea hydrobromide] |  |  |  | cell cycle effect (HCT116 cells [1]; HCT116): G2/M arrest; cell cycle effect on addition of NAC (HCT116 cells [1]; HCT116, with NAC): reversed; weight loss [2]: no significant weight loss; ROS levels (HCT116 and HT29 cells; 5 μM, 24 hours, vs DMSO): significantly increased; ROS-inducing activity on addition of NAC (HCT116 and HT29 cells; with N-Acetyl Cysteine (NAC)): abrogated; percentage of cells both Annexin-V and 7-AAD positive (HCT116 cells [3]): significantly higher; increase of cell killing IC50 by addition of NAC (HCT116 cells [4]): 6 fold
144 µM | 139 µM | Cc1nc2ccccc2n1S(=O)(=O)c1ccc(F)cc1 [CB7] |  |  |  | 
169 µM | 15.6 µM | O=C1Nc2ccccc2C1=O [Isatin] | 5.05 µM | ineffective | ineffective | 
 |  | CCOC(=O)CSc1nc2c(sc3ccccc32)c(=O)n1CCCN1CCCC1 [CM037] |  | significantly reduced | significantly reduced | 
 |  | CCN(CC)c1ccc(C=O)cc1 [DEAB] | 15.1 µM | significantly reduced | significantly reduced | IC50 (ALDH3A1; Study 1, text, read-out: IC50 ALDH3A1): 15.1 µM; reduction of UACC 903 cell survival (UACC 903 cells): 30%
